A short description of data set [1]: Mammalian toxicity, oral, Swiss white mice (LD50). Format: in vivo. Conditions: mouse, in vivo; oral, corn oil carrier, Swiss white mice. As for the experimental part:
(§1) Mammalian toxicity was determined against Swiss white mice. The test compound was applied orally using corn oil as the carrier.

The subject of data set [2] is house flies, Musca domestica. In words: Topical insecticidal activity against house flies (percent mortality 24 h after application, LD50). The data set is classed as in vivo. The settings on record: read-out: House fly LD50. As for the experimental part:
Representative compounds of the invention were tested for insecticidal activity against house flies, Musca domestica. Stock 1% concentrated solutions of each of the test compounds were made in acetone, and such solutions diluted with acetone to a concentration of 0.001-0.1%. House flies were treated topically on the notum by 1 μl of each of the diluted acetone solutions and percent mortality was counted 24 hours after application.

The next data set has as its system Swiss white mice. In words: Mammalian toxicity, oral, Swiss white mice (LD50). Format: in vivo. Conditions: mouse oral, from Table II. As for the experimental part:
as §1

Another data set deals with mammals. The settings on record: in vivo; cited from earlier work.
The next data set concerns insects. The settings on record: in vivo; cited from earlier work.
A further data set is described as follows: Water solubility. The data set is classed as physicochemical.

Data on twelve compounds can be found in US4279897A, “(Alkoxycarbonyl)(alkyl)aminosulfenyl derivatives of phosphoramidothioate esters” (priority 1979, dated 1981).

Structures are written as SMILES.

Consider `CCN(SNP(=O)(OC)SC)C(=O)OC` (centres unmarked) [Compound 1, O,S-dimethyl N-(N'-methoxycarbonyl-N'-ethylaminosulfenyl)phosphoramidothioate], for which the median lethal dose (LD50) (commonly the dose at which mortality reaches 50%) stood at 30 mg/kg in data set [1] and 2.8 mg/kg in data set [2].
Take `CCCCCCOC(=O)N(CC)SNP(=O)(OC)SC` (centres unmarked) [Compound 2]: the median lethal dose (LD50) stood at 34 mg/kg in data set [1] and 3.8 mg/kg in data set [2].
Turning to `CCCN(SNP(=O)(OC)SC)C(=O)OC` (centres unmarked) [Compound 3], the LD50 in data set [2] was found to be 1.6 mg/kg.
With `CCCN(SNP(=O)(OC)SC)C(=O)OCC` (centres unmarked) [Compound 4], the median lethal dose (LD50) in data set [2] amounted to 2 mg/kg.
For `CCCOC(=O)N(CCC)SNP(=O)(OC)SC` (centres unmarked) [Compound 5], the 50% lethal dose (LD50) in data set [1] worked out at 36 mg/kg; in data set [2] it was 1.9 mg/kg.
In the case of `CCOC(=O)N(SNP(=O)(OC)SC)C(C)C` (centres unmarked) [Compound 6, O,S-Dimethyl N-[N'-(ethoxycarbonyl)-N'-(isopropylaminosulfenyl)]phosphoramidothioate], the “mammalian toxicity compared with methamidophos” value in the data set with Swiss white mice was “lower”. Also, the figures for the LD50 in data set [1] and in data set [2] were 50 mg/kg and 1.9 mg/kg, respectively.
`COP(=O)(NSN(C(=O)OC(C)C)C(C)C)SC` (centres unmarked) [Compound 7, O,S-Dimethyl N-[N'-(isopropoxycarbonyl)-N'-(isopropylaminosulfenyl)]phosphoramidothioate]: the LD50 in data set [2] was determined as 2.7 mg/kg.
Take `CCCOC(=O)N(SNP(=O)(OC)SC)C(C)C` (centres unmarked) [Compound 8, O,S-dimethyl N-(N'-propoxycarbonyl-N'-isopropylaminosulfenyl)phosphoramidothioate]: the “mammalian toxicity compared with methamidophos” value in the data set on Swiss white mice is reported as “lower”. Besides, the LD50 in data set [1] was determined as 50 mg/kg; in data set [2], 2.5 mg/kg.
For `CCOC(=O)N(SNP(=O)(OC)SC)C(C)(C)C` (centres unmarked) [Compound 9, O,S-Dimethyl N-[N'-(ethoxycarbonyl)-N'-(tert.-butylaminosulfenyl)]phosphoramidothioate], in the data set with Swiss white mice, the “mammalian toxicity compared with methamidophos” value is given as “lower”. Besides, the LD50 in data set [1] stood at 50 mg/kg; in data set [2], 2.5 mg/kg.
Taken in the same sequence, the figures for `CCCOC(=O)N(SNP(=O)(OC)SC)C(C)(C)C` (centres unmarked) [Compound 10] were “lower”, 50 mg/kg and 1.6 mg/kg.
Regarding `COP(N)(=O)SC` (centres unmarked) [Methamidophos, O,S-dimethyl phosphoramidothiote], the “mammalian toxicity (background)” value in the data set on mammals is “high toxicity to both insects and mammals”. For the same compound, the “insecticidal activity / toxicity to insects (background)” value in the data set with insects was “high toxicity to both insects and mammals”. Moreover, the water solubility result in the data set “Water solubility” was “freely soluble in water”.
For `COP(=O)(NC(C)=O)SC` (centres unmarked) [acephate], in the data set with mammals, the “mammalian toxicity (background)” value is “relatively low mammalian toxicity”. In addition, the “insecticidal activity / toxicity to insects (background)” value in the data set on insects was “high insecticidal activity”.
